Reference: paper PMC12300041, “Tricyclic Isatin Derivatives as Anti-Inflammatory Compounds with High Kinase Binding Affinity” (Molecules, 2025)

Columns and labels:
Assay in all cases: KINOMEscan
Assay type in all cases: binding
MAP3K2 = target: T1, MAP3K2 (Homo sapiens, UniProt Q9Y2U5)
T1 construct: purchased Eurofins DiscoverX KINOMEscan
Summary of the method: (§1)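 Binding reactions proceed for 1 h at room temperature. Kinase not bound by compound is captured on immobilized affinity ligand and quantified by qPCR; Kd is fitted over 12 half-log concentrations, top 33 μM.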

PKMYT1 = target: T2, PKMYT1 (Homo sapiens, UniProt Q99640)
T2 construct: purchased Eurofins DiscoverX KINOMEscan
Summary of the method: as §1

ABL1 (Y253F)-P = target: T3, ABL1 (Y253F)-P (Homo sapiens, UniProt P00519, Y253F)
T3 construct: purchased Eurofins DiscoverX KINOMEscan
Summary of the method: as §1

CSNK1G3 = target: T4, CSNK1G3 (Homo sapiens, UniProt Q9Y6M4)
T4 construct: purchased Eurofins DiscoverX KINOMEscan
Summary of the method: as §1

MET (Y1235D) = target: T5, MET (Y1235D) (Homo sapiens, UniProt P08581, Y1235D)
T5 construct: purchased Eurofins DiscoverX KINOMEscan
Summary of the method: as §1

MEK2 = target: T6, MEK2 (Homo sapiens, UniProt P36507)
T6 construct: purchased Eurofins DiscoverX KINOMEscan
Summary of the method: (§2)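 Read-out is qPCR of kinase not bound to the test compound, recovered by capture on an immobilized affinity ligand after a 1 h room-temperature binding step. Dissociation constants came from 12 half-log dilutions starting at 33 μM.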

FER = target: T7, FER (Homo sapiens, UniProt P16591)
T7 construct: purchased Eurofins DiscoverX KINOMEscan
Summary of the method: as §1

TTK = target: T8, TTK (Homo sapiens, UniProt P33981)
T8 construct: purchased Eurofins DiscoverX KINOMEscan
Summary of the method: as §1

CLK1 = target: T9, CLK1 (Homo sapiens, UniProt P49759)
T9 construct: purchased Eurofins DiscoverX KINOMEscan
Summary of the method: as §2

EPHA7 = target: T10, EPHA7 (Homo sapiens, UniProt Q15375)
T10 construct: purchased Eurofins DiscoverX KINOMEscan
T10 sequence (Q15375 28-998): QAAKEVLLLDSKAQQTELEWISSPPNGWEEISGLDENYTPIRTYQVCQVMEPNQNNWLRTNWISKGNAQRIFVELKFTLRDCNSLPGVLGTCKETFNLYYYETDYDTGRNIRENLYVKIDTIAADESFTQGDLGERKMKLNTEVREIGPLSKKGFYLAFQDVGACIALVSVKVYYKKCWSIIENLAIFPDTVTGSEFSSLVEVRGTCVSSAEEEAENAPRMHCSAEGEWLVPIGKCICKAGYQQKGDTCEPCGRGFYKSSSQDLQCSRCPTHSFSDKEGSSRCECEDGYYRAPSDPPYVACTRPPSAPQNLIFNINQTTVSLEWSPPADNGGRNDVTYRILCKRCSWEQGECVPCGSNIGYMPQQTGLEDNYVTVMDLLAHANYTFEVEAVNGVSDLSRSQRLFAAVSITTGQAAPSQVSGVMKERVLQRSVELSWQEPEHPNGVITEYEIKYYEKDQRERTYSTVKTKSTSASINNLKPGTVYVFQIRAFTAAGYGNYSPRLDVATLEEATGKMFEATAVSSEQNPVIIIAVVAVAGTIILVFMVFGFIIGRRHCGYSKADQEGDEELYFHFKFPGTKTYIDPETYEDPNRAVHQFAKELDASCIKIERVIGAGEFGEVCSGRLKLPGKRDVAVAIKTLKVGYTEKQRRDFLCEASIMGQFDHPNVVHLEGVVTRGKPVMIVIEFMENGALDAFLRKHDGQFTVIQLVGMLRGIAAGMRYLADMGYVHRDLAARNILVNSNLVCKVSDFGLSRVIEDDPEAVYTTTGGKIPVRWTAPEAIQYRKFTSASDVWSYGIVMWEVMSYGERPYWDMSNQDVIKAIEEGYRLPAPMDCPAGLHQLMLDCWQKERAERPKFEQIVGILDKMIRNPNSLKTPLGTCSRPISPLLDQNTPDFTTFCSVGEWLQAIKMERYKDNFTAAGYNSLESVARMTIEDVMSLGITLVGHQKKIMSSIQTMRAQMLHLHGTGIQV
Summary of the method: as §1

PCTK3 = target: T11, PCTK3 (Homo sapiens, UniProt Q07002)
T11 construct: purchased Eurofins DiscoverX KINOMEscan
Summary of the method: as §1

PAK2 = target: T12, PAK2 (Homo sapiens, UniProt Q13177)
T12 construct: purchased Eurofins DiscoverX KINOMEscan
Summary of the method: as §2

ULK2 = target: T13, ULK2 (Homo sapiens, UniProt Q8IYT8)
T13 construct: purchased Eurofins DiscoverX KINOMEscan
Summary of the method: as §1

GRK3 = target: T14, GRK3 (Homo sapiens, UniProt P35626)
T14 construct: purchased Eurofins DiscoverX KINOMEscan
T14 sequence (P35626 whole entry): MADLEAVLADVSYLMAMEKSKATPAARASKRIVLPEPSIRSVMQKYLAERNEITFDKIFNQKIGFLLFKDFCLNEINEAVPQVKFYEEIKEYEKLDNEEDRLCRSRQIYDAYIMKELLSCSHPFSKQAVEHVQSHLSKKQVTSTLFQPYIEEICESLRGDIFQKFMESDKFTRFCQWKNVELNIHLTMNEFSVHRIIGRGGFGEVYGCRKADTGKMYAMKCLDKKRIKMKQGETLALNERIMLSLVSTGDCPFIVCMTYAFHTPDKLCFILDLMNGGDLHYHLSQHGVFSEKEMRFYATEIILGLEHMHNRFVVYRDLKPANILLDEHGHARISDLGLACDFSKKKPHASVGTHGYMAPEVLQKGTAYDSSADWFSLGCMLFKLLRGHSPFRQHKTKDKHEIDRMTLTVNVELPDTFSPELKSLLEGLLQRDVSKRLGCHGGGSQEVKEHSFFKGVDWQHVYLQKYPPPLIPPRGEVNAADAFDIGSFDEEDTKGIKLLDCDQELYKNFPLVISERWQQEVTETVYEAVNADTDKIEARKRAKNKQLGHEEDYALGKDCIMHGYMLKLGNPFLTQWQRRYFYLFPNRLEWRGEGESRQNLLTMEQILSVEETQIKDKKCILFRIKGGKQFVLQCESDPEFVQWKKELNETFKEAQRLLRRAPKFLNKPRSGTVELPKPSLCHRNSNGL
Summary of the method: as §1

PLK2 = target: T15, PLK2 (Homo sapiens, UniProt Q9NYY3)
T15 construct: purchased Eurofins DiscoverX KINOMEscan
Summary of the method: as §2

PIP5K2C = target: T16, PIP5K2C (Homo sapiens, UniProt Q8TBX8)
T16 construct: purchased Eurofins DiscoverX KINOMEscan
Summary of the method: as §2

MAK = target: T17, MAK (Homo sapiens, UniProt P20794)
T17 construct: purchased Eurofins DiscoverX KINOMEscan
Summary of the method: as §1

BMPR2 = target: T18, BMPR2 (Homo sapiens, UniProt Q13873)
T18 construct: purchased Eurofins DiscoverX KINOMEscan
Summary of the method: as §1

AURKC = target: T19, AURKC (Homo sapiens, UniProt Q9UQB9)
T19 construct: purchased Eurofins DiscoverX KINOMEscan
T19 sequence (Q9UQB9 whole entry): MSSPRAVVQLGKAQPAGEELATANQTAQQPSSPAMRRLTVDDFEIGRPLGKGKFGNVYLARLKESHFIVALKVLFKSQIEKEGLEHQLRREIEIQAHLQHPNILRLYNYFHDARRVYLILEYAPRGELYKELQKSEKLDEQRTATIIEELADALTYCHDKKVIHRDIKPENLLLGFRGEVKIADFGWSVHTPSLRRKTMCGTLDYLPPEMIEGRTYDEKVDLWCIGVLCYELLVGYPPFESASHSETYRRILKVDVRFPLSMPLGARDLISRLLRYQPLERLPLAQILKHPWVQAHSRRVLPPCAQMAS
Summary of the method: as §2

JNK3 = target: T20, JNK3 (Homo sapiens, UniProt P53779)
T20 construct: purchased Eurofins DiscoverX KINOMEscan
Summary of the method: as §1

LATS1 = target: T21, LATS1 (Homo sapiens, UniProt O95835)
T21 construct: purchased Eurofins DiscoverX KINOMEscan
Summary of the method: as §1

PFTAIRE2 = target: T22, PFTAIRE2 (Homo sapiens, UniProt Q96Q40)
T22 construct: purchased Eurofins DiscoverX KINOMEscan
T22 sequence (Q96Q40 whole entry): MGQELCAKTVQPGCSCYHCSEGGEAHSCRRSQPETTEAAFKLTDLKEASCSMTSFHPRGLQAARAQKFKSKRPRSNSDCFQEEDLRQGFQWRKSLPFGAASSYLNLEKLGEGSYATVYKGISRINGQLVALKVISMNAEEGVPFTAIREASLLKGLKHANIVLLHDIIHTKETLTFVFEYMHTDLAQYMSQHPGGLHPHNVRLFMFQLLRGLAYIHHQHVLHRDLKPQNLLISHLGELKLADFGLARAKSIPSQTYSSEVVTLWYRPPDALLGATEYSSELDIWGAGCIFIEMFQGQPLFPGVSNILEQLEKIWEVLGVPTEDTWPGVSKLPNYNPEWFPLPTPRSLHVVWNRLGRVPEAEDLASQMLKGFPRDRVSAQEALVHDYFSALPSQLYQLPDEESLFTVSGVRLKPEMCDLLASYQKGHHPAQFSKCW
Summary of the method: as §2

LIMK1 = target: T23, LIMK1 (Homo sapiens, UniProt P53667)
T23 construct: purchased Eurofins DiscoverX KINOMEscan
T23 sequence (P53667 whole entry): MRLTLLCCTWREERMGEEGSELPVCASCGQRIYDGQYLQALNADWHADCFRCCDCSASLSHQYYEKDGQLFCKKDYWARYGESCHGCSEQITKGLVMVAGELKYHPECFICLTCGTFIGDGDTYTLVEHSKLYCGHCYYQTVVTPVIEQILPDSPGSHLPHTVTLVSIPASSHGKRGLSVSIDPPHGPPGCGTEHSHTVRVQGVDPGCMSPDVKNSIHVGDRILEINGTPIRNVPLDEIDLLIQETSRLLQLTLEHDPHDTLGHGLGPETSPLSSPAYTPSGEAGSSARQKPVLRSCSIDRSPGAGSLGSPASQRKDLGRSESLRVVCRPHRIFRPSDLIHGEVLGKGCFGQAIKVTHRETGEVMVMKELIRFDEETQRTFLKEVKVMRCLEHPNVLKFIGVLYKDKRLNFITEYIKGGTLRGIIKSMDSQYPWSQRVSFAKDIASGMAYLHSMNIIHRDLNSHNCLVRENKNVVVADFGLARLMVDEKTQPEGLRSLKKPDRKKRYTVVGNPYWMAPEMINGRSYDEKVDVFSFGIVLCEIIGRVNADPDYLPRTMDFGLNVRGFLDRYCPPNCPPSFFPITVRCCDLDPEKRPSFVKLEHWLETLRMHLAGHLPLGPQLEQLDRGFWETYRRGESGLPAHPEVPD
Summary of the method: as §1

FLT1 = target: T24, FLT1 (Homo sapiens, UniProt P17948)
T24 construct: purchased Eurofins DiscoverX KINOMEscan
Summary of the method: as §2

LOK = target: T25, LOK (Homo sapiens, UniProt O94804)
T25 construct: purchased Eurofins DiscoverX KINOMEscan
Summary of the method: as §1

AMPK-α1 = target: T26, AMPK-α1 (Homo sapiens, UniProt Q13131)
T26 construct: purchased Eurofins DiscoverX KINOMEscan
T26 sequence (Q13131 whole entry): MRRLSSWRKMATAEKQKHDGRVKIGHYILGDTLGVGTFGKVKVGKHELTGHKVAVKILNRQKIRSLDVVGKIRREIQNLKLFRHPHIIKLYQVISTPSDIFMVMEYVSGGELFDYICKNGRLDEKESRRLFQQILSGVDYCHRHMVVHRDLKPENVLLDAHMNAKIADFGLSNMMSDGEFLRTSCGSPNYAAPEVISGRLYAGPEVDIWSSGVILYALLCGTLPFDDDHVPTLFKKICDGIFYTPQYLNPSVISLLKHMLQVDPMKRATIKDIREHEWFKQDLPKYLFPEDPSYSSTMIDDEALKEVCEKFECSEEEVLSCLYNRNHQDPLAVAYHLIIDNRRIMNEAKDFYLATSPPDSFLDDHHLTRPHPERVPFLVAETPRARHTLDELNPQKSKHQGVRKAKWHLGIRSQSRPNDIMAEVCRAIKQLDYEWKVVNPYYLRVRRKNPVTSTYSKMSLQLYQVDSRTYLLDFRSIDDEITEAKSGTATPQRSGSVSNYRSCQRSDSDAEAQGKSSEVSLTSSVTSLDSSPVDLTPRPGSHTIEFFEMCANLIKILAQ
Summary of the method: as §2

PHKG1 = target: T27, PHKG1 (Homo sapiens, UniProt Q16816)
T27 construct: purchased Eurofins DiscoverX KINOMEscan
Summary of the method: as §2

PIKFYVE = target: T28, PIKFYVE (Homo sapiens, UniProt Q9Y2I7)
T28 construct: purchased Eurofins DiscoverX KINOMEscan
Summary of the method: as §1

ALK (C1156Y) = target: T29, ALK (C1156Y) (Homo sapiens, UniProt Q9UM73, C1156Y)
T29 construct: purchased Eurofins DiscoverX KINOMEscan
Summary of the method: as §1

PIM2 = target: T30, PIM2 (Homo sapiens, UniProt Q9P1W9)
T30 construct: purchased Eurofins DiscoverX KINOMEscan
Summary of the method: as §1

CHEK2 = target: T31, CHEK2 (Homo sapiens, UniProt O96017)
T31 construct: purchased Eurofins DiscoverX KINOMEscan
Summary of the method: as §1

EGFR (G719S) = target: T32, EGFR (G719S) (Homo sapiens, UniProt P00533, G719S)
T32 construct: purchased Eurofins DiscoverX KINOMEscan
Summary of the method: as §1

ERK1 = target: T33, ERK1 (Homo sapiens, UniProt P27361)
T33 construct: purchased Eurofins DiscoverX KINOMEscan
Summary of the method: as §1

CDKL1 = target: T34, CDKL1 (Homo sapiens, UniProt Q00532)
T34 construct: purchased Eurofins DiscoverX KINOMEscan
Summary of the method: as §1

JNK2 = target: T35, JNK2 (Homo sapiens, UniProt P45984)
T35 construct: purchased Eurofins DiscoverX KINOMEscan
Summary of the method: as §1

FGFR2 = target: T36, FGFR2 (Homo sapiens, UniProt P21802)
T36 construct: purchased Eurofins DiscoverX KINOMEscan
Summary of the method: as §1

EGFR (L861Q) = target: T37, EGFR (L861Q) (Homo sapiens, UniProt P00533, L861Q)
T37 construct: purchased Eurofins DiscoverX KINOMEscan
T37 sequence (P00533 25-1210 L861Q): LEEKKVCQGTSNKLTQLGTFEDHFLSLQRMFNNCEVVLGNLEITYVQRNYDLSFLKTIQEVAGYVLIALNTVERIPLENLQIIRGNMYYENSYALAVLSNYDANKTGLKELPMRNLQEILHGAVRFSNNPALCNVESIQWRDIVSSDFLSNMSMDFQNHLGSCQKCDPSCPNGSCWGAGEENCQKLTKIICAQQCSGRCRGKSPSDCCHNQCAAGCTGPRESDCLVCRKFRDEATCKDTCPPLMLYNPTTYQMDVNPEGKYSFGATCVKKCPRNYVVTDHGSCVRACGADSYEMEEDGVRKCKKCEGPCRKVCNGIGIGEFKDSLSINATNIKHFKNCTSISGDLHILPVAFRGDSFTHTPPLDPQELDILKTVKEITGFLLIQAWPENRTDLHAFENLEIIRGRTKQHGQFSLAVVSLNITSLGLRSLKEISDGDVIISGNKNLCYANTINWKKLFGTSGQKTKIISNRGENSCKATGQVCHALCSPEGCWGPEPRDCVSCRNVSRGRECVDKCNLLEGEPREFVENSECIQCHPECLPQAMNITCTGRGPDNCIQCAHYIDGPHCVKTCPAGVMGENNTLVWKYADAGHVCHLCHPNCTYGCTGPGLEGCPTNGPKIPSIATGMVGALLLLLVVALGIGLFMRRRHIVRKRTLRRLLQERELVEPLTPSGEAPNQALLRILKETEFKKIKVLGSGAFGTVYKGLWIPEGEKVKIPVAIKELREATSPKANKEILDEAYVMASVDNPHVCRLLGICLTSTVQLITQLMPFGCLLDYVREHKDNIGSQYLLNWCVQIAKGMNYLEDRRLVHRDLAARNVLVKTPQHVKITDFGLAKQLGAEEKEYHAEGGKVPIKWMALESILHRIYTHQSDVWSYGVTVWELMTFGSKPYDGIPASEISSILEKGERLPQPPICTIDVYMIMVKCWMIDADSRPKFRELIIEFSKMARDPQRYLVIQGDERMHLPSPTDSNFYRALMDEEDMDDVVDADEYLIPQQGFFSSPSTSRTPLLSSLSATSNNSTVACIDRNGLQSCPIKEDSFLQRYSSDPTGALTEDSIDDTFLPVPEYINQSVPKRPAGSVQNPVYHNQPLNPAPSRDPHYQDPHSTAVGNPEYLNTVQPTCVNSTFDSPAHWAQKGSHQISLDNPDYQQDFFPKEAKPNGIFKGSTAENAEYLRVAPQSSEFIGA
Summary of the method: as §1

PIK3CA (E545K) = target: T38, PIK3CA (E545K) (Homo sapiens, UniProt P42336, E545K)
T38 construct: purchased Eurofins DiscoverX KINOMEscan
Summary of the method: as §1

BRSK2 = target: T39, BRSK2 (Homo sapiens, UniProt Q8IWQ3)
T39 construct: purchased Eurofins DiscoverX KINOMEscan
Summary of the method: as §1

LRRK2 = target: T40, LRRK2 (Homo sapiens, UniProt Q5S007)
T40 construct: purchased Eurofins DiscoverX KINOMEscan
Summary of the method: as §2

O=C1Nc2c(cc([N+](=O)[O-])c3c2CCCC3)C1=NO [Compound 5d, 3-(Hydroxyimino)-5-nitro-1,3,6,7,8,9-hexahydro-2H-benzo[g]indol-2-one]
inhibition at 10 µM (MAP3K2): 79%
inhibition at 10 µM (PKMYT1): 0%
inhibition at 10 µM (ABL1 (Y253F)-P): 41%
inhibition at 10 µM (CSNK1G3): 83%
inhibition at 10 µM (MET (Y1235D)): 25%
inhibition at 10 µM (MEK2): 87%
inhibition at 10 µM (FER): 39%
inhibition at 10 µM (TTK): 95.6%
inhibition at 10 µM (CLK1): 85%
inhibition at 10 µM (EPHA7): 9%
inhibition at 10 µM (PCTK3): 0%
inhibition at 10 µM (PAK2): 41%
inhibition at 10 µM (ULK2): 52%
inhibition at 10 µM (GRK3): 77%
inhibition at 10 µM (PLK2): 67%
inhibition at 10 µM (PIP5K2C): 40%
inhibition at 10 µM (MAK): 5%
inhibition at 10 µM (BMPR2): 64%
inhibition at 10 µM (AURKC): 39%
inhibition at 10 µM (JNK3): 52%
inhibition at 10 µM (LATS1): 0%
inhibition at 10 µM (PFTAIRE2): 6%
inhibition at 10 µM (LIMK1): 0%
inhibition at 10 µM (FLT1): 12%
inhibition at 10 µM (LOK): 73%
inhibition at 10 µM (AMPK-α1): 28%
inhibition at 10 µM (PHKG1): 0%
inhibition at 10 µM (PIKFYVE): 28%
inhibition at 10 µM (ALK (C1156Y)): 43%
inhibition at 10 µM (PIM2): 96%
inhibition at 10 µM (CHEK2): 48%
inhibition at 10 µM (EGFR (G719S)): 13%
inhibition at 10 µM (ERK1): 0%
inhibition at 10 µM (CDKL1): 42%
inhibition at 10 µM (JNK2): 49%
inhibition at 10 µM (FGFR2): 19%
inhibition at 10 µM (EGFR (L861Q)): 12%
inhibition at 10 µM (PIK3CA (E545K)): 0%
inhibition at 10 µM (BRSK2): 31%
inhibition at 10 µM (LRRK2): 96%
